{
  "source": "patent US10167517B2",
  "about": "“MIPOL1-ETV1 gene rearrangements” (THE REGENTS OF THE UNIVERSITY OF MICHIGAN, priority 2007, dated 2019)",
  "test_system": "LNCaP cells",
  "test": "Androgen regulation of gene expression by qPCR in LNCaP cells stimulated with R1881",
  "format": "cell-based",
  "conditions": "target gene to GAPDH ratio",
  "source_text": "FIG. 6, a illustrates the tissue specificity of the 4 contiguous genes in the 14q13.3-14q21.1 region which was interrogated in the expo dataset (using Oncomine) and expression (in normalized expression units) is shown for 28 distinct tumor types and prostate cancer. FIG. 6, b and -c illustrate androgen regulation of the contiguous 14q13.3-14q21.1 genes (FIG. 6, b) and ETV1 (FIG. 6, c), as determined by qPCR in LNCaP cells with (+) or without (−) stimulation by the synthetic androgen R1881. Ratios of target gene to GAPDH (mean (n=4)+S.E.) are shown. FIG. 6, d illustrates that LNCaP and its androgen insensitive derivative, C4-2B, were profiled using a microarray (Agilent Whole Genome Microarrays), in which the top ten most differentially expressed features (LNCaP/C4-2B) are shown. FIG. 6, e-g illustrate qPCR results that show decreased expression of androgen regulated genes in C4-2B compared to LNCaP, for markers ETV1 (FIG. 6, e) and PSA (FIG. 6, f), and the 4 contiguous transcripts at 14q13.3-14q21.1 (FIG. 6, g).\nAdditional prostate cancer cell lines were tested to screen for ERG and ETV1 expression by quantitative PCR (qPCR), to identify additional genetic rearrangements. The following cells were tested: an immortalized benign prostate epithelial cell line (RWPE) and 8 prostate cancer cell lines (MDA-PCa 2B, LNCaP, VCaP, LAPC4, 22Rv1, NCI-H660, PC3 and DU145). Quantitative PCR (QPCR) was performed by using the oligonucleotide primers shown in Table 1 (“Fusion QPCR” and “Androgen QPCR” sections) with standard laboratory procedures and reagents (Power SYBR Green Mastermix and 7300 Real Time PCR system, Applied Biosystems, Foster City, Calif.). All oligonucleotide primers were synthesized by standard methods (performed by Integrated DNA Technologies, Coralville, Iowa). HMBS and GAPDHS, and PSA6 primers were as described previously (Vandesompele et al., Genome Biol. 3:RESEARCH0034 (2002); Specht et al., Am J. Pathol. 158: 419 (2001)). Androgen stimulation reactions were performed in quadruplicate, and all other reactions were performed in duplicate.",
  "data": [
    {"smiles": "C[C@]1(O)CC[C@H]2[C@@H]3CCC4=CC(=O)CCC4=C3C=C[C@@]21C", "note": "[R1881]", "values": [
      {"measurement": "expression of ETV1 following R1881 stimulation", "setting": "with vs without R1881, p=0.0004", "value": 1.8, "unit": "fold"},
      {"measurement": "expression of SLC25A21 following R1881 stimulation", "setting": "with vs without R1881, p=0.008", "value": 0.75, "unit": "fold"},
      {"measurement": "expression of FOXA1 following R1881 stimulation", "setting": "with vs without R1881, p=0.05", "value": 1.3, "unit": "fold"},
      {"measurement": "expression of MIPOL1 following R1881 stimulation", "setting": "with vs without R1881, p=0.08", "value": 1.2, "unit": "fold"},
      {"measurement": "expression of TTC6 following R1881 stimulation", "setting": "with vs without R1881, p=0.10", "value": 0.70, "unit": "fold"}
    ]}
  ]
}
